The subject of experiment [1] is Epidermal growth factor receptor (Homo sapiens), P00533 [L858R,T790M,C797S]. Briefly: Inhibition of EGFR L858R/T790M/C797S mutant (unknown origin) at 1 uM relative to control.
The test system is the same in experiment [2]. In words: Inhibition of EGFR L858R/T790M/C797S mutant (unknown origin) at 0.5 uM relative to control.
The test system of a further experiment is A-431. Briefly: Antiproliferative activity against human A-431 cells assessed as inhibition of cell growth incubated for 72 hrs by CCK-8 assay. It is filed as functional, cell-based. The note with it: A-431, 72 h. On the technique in general: Formazan colour is commonly taken as a measure of viable cells.
Experiment [3] has as its system PC-9. In words: Induction of apoptosis in human PC-9 cells expressing EGFR L858R/T790M/C797S mutant assessed as late apoptotic cells at 0.25 uM incubated for 24 hrs by annexin-V/propidium iodide staining-based flow cytometry analysis (reference value: 0.14 %). It is filed as functional.
For experiment [4], the system named is PC-9. In words: Induction of apoptosis in human PC-9 cells expressing EGFR L858R/T790M/C797S mutant assessed as dead cells at 0.25 uM incubated for 24 hrs by annexin-V/propidium iodide staining-based flow cytometry analysis (reference value: 0.43 %). The format is functional.
The test system of a further experiment is A549. Briefly: Antiproliferative activity against human A549 cells assessed as inhibition of cell growth incubated for 72 hrs by CCK-8 assay. The format is functional, cell-based. The following applies: A549, 72 h.
Experiment [5] concerns PC-9. In words: Antiproliferative activity against human PC-9 cells expressing EGFR L858R/T790M/C797S mutant assessed as inhibition of cell growth incubated for 72 hrs by CCK-8 assay. The format is functional, cell-based. The note with it: PC-9, 72 h.
In experiment [6] the test system is PC-9. In words: Induction of apoptosis in human PC-9 cells expressing EGFR L858R/T790M/C797S mutant assessed as viable cells at 0.25 uM incubated for 24 hrs by annexin-V/propidium iodide staining-based flow cytometry analysis (reference value: 99.1 %). The format is functional. In general terms: Flow cytometry measures light scatter and fluorescence of single cells or particles in a stream.

For experiment [7], the system named is PC-9. Briefly: Induction of apoptosis in human PC-9 cells expressing EGFR L858R/T790M/C797S mutant assessed as early apoptotic cells at 0.25 uM incubated for 24 hrs by annexin-V/propidium iodide staining-based flow cytometry analysis (reference value: 0.3 %). It is filed as functional.
Experiment [8] addresses Epidermal growth factor receptor (Homo sapiens, UniProt P00533, C797S/L858R/T790M). In words: Inhibition of EGFR L858R/T790M/C797S mutant (unknown origin).

By inhibition is commonly meant the relative decrease from the control value, in per cent. In general, IC50 refers to the concentration at which inhibition is half-maximal.

Chain of Epidermal growth factor receptor (P00533 25-1210 T790M/C797S/L858R limits assumed): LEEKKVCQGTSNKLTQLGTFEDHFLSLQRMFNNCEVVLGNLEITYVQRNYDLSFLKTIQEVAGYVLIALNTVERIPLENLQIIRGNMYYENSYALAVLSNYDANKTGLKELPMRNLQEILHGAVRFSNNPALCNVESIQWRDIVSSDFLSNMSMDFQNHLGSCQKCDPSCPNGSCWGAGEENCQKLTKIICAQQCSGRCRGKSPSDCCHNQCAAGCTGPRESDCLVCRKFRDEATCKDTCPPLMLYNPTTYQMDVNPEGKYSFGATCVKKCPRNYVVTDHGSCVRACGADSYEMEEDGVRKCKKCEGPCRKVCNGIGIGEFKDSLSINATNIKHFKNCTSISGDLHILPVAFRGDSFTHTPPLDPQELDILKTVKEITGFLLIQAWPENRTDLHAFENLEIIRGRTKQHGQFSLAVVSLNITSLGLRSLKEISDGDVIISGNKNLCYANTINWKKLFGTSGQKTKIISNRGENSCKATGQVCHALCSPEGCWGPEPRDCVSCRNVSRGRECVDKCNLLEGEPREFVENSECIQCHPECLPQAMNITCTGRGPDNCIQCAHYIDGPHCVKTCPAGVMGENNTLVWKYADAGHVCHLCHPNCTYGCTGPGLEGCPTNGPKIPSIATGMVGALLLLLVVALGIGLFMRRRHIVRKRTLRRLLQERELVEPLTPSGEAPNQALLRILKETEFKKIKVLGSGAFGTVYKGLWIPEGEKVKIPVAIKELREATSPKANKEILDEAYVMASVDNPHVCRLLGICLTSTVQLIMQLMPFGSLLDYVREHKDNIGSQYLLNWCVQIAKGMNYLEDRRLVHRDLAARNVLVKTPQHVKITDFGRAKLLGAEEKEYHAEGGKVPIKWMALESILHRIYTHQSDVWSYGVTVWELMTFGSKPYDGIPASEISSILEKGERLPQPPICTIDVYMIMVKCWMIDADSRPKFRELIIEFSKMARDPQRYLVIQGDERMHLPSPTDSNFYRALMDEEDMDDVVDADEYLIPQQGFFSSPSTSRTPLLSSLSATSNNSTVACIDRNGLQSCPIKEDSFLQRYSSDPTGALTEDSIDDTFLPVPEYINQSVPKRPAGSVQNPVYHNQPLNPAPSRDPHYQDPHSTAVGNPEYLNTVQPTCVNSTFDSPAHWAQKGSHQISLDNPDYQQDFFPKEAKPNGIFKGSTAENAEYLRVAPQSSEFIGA
Chain of Epidermal growth factor receptor (Homo sapiens), P00533 [L858R,T790M,C797S] (P00533 whole entry T790M/C797S/L858R): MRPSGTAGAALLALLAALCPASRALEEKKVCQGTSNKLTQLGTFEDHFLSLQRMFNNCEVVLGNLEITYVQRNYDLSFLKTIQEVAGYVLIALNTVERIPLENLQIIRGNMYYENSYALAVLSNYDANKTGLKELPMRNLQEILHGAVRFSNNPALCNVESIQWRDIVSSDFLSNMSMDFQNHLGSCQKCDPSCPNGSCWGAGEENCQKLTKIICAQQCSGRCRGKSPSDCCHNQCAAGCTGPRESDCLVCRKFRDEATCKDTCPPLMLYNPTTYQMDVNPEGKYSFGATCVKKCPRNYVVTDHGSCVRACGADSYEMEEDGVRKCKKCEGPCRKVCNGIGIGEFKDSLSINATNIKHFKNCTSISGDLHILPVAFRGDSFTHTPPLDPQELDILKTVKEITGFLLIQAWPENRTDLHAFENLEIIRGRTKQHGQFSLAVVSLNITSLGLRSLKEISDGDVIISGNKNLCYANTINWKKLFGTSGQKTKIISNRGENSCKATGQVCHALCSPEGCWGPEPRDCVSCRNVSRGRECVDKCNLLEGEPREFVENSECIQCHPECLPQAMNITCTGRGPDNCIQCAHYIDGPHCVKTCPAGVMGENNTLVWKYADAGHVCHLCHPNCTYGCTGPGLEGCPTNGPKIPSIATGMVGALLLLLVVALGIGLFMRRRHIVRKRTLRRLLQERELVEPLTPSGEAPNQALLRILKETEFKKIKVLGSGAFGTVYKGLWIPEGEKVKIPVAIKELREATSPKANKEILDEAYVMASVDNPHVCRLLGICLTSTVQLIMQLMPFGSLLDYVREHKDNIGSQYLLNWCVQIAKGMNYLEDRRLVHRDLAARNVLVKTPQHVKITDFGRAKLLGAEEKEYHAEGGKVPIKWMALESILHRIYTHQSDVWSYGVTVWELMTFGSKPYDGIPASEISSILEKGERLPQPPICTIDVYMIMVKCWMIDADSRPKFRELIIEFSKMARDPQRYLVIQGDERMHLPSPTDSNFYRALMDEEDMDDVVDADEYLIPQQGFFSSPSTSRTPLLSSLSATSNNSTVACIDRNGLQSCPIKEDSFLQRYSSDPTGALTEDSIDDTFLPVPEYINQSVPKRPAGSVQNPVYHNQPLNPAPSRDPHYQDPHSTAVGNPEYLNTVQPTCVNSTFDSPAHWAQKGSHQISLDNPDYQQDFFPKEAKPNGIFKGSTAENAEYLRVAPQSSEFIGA

For the compound `C=CC(=O)Nc1cc(Nc2ncc3cc(C(=O)Nc4cccc(OC)c4)n(C4CCCCC4)c3n2)c(OC)cc1N(C)CCN(C)C`, the inhibition in experiment [1] worked out at 4.9%; in experiment [2] it was 1.1%.

On to `C=CC(=O)Nc1cc(Nc2ncc3cc(CNc4c(C)cccc4C)n(C4CCCC4)c3n2)c(OC)cc1N(C)CCN(C)C`, for which the inhibition in [1] amounted to 40%; in experiment [2], 23%.

As for `C=CC(=O)Nc1cc(Nc2ncc3cc(C(=O)Nc4cccc(C)c4)n(C4CCCC4)c3n2)c(OC)cc1N(C)CCN(C)C`, the inhibition came out at 14% in experiment [1] and 6.7% in experiment [2].

With `C=CC(=O)Nc1cc(Nc2ncc3cc(C(=O)Nc4ccc(OC)cc4)[nH]c3n2)c(OC)cc1N(C)CCN(C)C`, the inhibition in [1] stood at 9.5%; in experiment [2], 2.8%.

As to `C=CC(=O)Nc1cc(Nc2ncc3cc(C(=O)NC4CCCCC4)n(C4CCCC4)c3n2)c(OC)cc1N(C)CCN(C)C`, the inhibition in experiment [1] was determined as 6.5%; in [2], 4.8%.

As for `C=CC(=O)Nc1cc(Nc2ncc3cc(C(=O)Nc4ccc5c(c4)OCO5)n(C4CCCC4)c3n2)c(OC)cc1N(C)CCN(C)C`, the inhibition in [1] was determined as 13%; in [2], 0.5%.

As for `C=CC(=O)Nc1cc(Nc2ncc3cc(C(=O)Nc4cccc(OC)c4)n(C(C)C)c3n2)c(OC)cc1N(C)CCN(C)C`, the inhibition was 12% in experiment [1] and 9.3% in experiment [2].

As for `C=CC(=O)Nc1cc(Nc2ncc3cc(C(=O)Nc4ccccc4OC)n(C4CCCC4)c3n2)c(OC)cc1N(C)CCN(C)C`, the inhibition in [1] amounted to 18%; in [2], 7.5%.

Regarding `C=CC(=O)Nc1cc(Nc2ncc3cc(C(=O)Nc4cccc(OC(F)(F)F)c4)n(C4CCCC4)c3n2)c(OC)cc1N(C)CCN(C)C`, the inhibition in experiment [1] is 0.6%; in experiment [2], -1.9%.

For the compound `C=CC(=O)Nc1cc(Nc2ncc3cc(C(=O)NC4CCCc5ccccc54)n(C4CCCC4)c3n2)c(OC)cc1N(C)CCN(C)C` (stereo not drawn), the inhibition in experiment [1] worked out at 23%; in [2] it was 13%.

With `C=CC(=O)Nc1cc(Nc2ncc3cc(CNc4cc(C)cc(C)c4)n(C4CCCC4)c3n2)c(OC)cc1N(C)CCN(C)C`, the inhibition in experiment [1] was -8.4%; in [2], -1.4%.

For `C=CC(=O)Nc1cc(Nc2ncc3cc(C(=O)Nc4cccc(OC)c4)n(C4CC4)c3n2)c(OC)cc1N(C)CCN(C)C`, the inhibition in experiment [1] worked out at 7.8%; in [2] it was 7%.

For `C=CC(=O)Nc1cc(Nc2nccc(-c3cn(C)c4ccccc34)n2)c(OC)cc1N(C)CCN(C)C` [OSIMERTINIB], the IC50 in the experiment with A-431 was determined as […]; in the experiment on A549 it was 784 nM; in the experiment with PC-9 [5], 3250 nM. Further, the Activity is listed as 4.75% with PC-9 [3], 1.1% in the experiment on PC-9 [4], 90.3% in the experiment on PC-9 [6] and 3.83% in the experiment on PC-9 [7].

As to `C=CC(=O)Nc1cc(Nc2ncc3cc(C(=O)Nc4cccc(C(F)(F)F)c4)n(C4CCCC4)c3n2)c(OC)cc1N(C)CCN(C)C`, the figures for the inhibition in [1] and in [2] were 10% and 4.7%, respectively.

As for `C=CC(=O)Nc1cc(Nc2ncc3cc(C(=O)Nc4cccc(O)c4)n(C4CCCC4)c3n2)c(OC)cc1N(C)CCN(C)C`, the inhibition in experiment [1] was found to be 22%; in [2], 5.2%.

Turning to `C=CC(=O)Nc1cc(Nc2ncc3cc(C(=O)Nc4cc(OC)c(OC)c(OC)c4)n(C4CCCC4)c3n2)c(OC)cc1N(C)CCN(C)C`, the inhibition in [1] turned out to be 5.3%; in experiment [2], 3.1%.

For `C=CC(=O)Nc1cc(Nc2ncc3cc(C(=O)Nc4ccccc4)n(C4CCCC4)c3n2)c(OC)cc1N(C)CCN(C)C`, the inhibition stood at 26% in experiment [1] and 18% in experiment [2].

On to `C=CC(=O)Nc1cc(Nc2ncc3cc(C(=O)Nc4ccccc4)n(C4CCCC4)c3n2)c(OC)cc1N1CCC(N2CCN(C)CC2)CC1`, for which the inhibition in experiment [1] turned out to be 20%; in experiment [2], 16%.

For the compound `C=CC(=O)Nc1cc(Nc2ncc3cc(C(=O)Nc4cccc(OC)c4)n(C4CCCC4)c3n2)c(OC)cc1N1CCC(N(C)C)CC1`, the inhibition in experiment [1] was 16%; in [2] it was 15%.

Turning to `CN(C)CCN(C)c1ccc(Nc2ncc3cc(CNc4ccccc4)n(C4CCCC4)c3n2)cc1`, the inhibition was determined as 90% in experiment [1] and 88% in experiment [2]. Moreover, the IC50 in [8] was 304 nM; with A-431, 1120 nM; with A549, 426 nM; in the experiment on PC-9 [5], 248 nM.

With `C=CC(=O)Nc1cc(Nc2ncc3cc(C(=O)Nc4ccnc(C)c4)n(C4CCCC4)c3n2)c(OC)cc1N(C)CCN(C)C`, the inhibition in experiment [1] was 8.3%; in experiment [2], -10%.

For the compound `C=CC(=O)Nc1cc(Nc2ncc3cc(C(=O)Nc4ccccc4)n(C4CCCC4)c3n2)c(OC)cc1N1CCN(C(C)C)CC1`, the inhibition in experiment [1] stood at 21%; in [2], 18%.

On to `C=CC(=O)Nc1cc(Nc2ncc3cc(C(=O)Nc4cccc(OC)c4)n(C)c3n2)c(OC)cc1N(C)CCN(C)C`, for which the inhibition was -1.3% in experiment [1] and -5% in [2].

Turning to `C=CC(=O)Nc1cc(Nc2ncc3cc(C(=O)Nc4ccc(OC)c(OC)c4)n(C4CCCC4)c3n2)c(OC)cc1N(C)CCN(C)C`, the inhibition in [1] is 8.7%; in experiment [2] it was 7.3%.

For `C=CC(=O)Nc1cc(Nc2ncc3cc(CNc4cccc(C)c4)n(C4CCCC4)c3n2)c(OC)cc1N(C)CCN(C)C`, the inhibition in [1] worked out at 61%; in experiment [2], 48%.

On to `C=CC(=O)Nc1cc(Nc2ncc3cc(C(=O)Nc4ccccc4)n(C4CCCC4)c3n2)c(OC)cc1N1CCN(C)CC1`, for which the inhibition in experiment [1] and in [2] was 23% throughout.

As to `C=CC(=O)Nc1cc(Nc2ncc3cc(C(=O)Nc4ccnc(OC)c4)n(C4CCCC4)c3n2)c(OC)cc1N(C)CCN(C)C`, the inhibition in experiment [1] was 4.1%; in experiment [2], -2.6%.

Consider `C=CC(=O)Nc1cc(Nc2ncc3cc(C(=O)Nc4cccc(OC)c4)n(-c4ccccc4)c3n2)c(OC)cc1N(C)CCN(C)C`, for which the inhibition in experiment [1] turned out to be 6%; in experiment [2], 4.1%.

For `C=CC(=O)Nc1cc(Nc2ncc3cc(C(=O)Nc4cccc(OC)c4)n(C4CCCC4)c3n2)c(OC)cc1N1CCN(CCOC)CC1`, the inhibition in experiment [1] is -0.3%; in experiment [2], -2.3%.

Turning to `C=CC(=O)Nc1cc(Nc2ncc3cc(C(=O)Nc4cccc(C#N)c4)n(C4CCCC4)c3n2)c(OC)cc1N(C)CCN(C)C`, the inhibition in experiment [1] is 3%; in experiment [2], 3.7%.

For `COc1cc(N2CCC(N3CCN(C)CC3)CC2)ccc1Nc1ncc2cc(CNc3ccccc3)n(C3CCCC3)c2n1`, the results for the inhibition in experiment [1] and in experiment [2] were 82% and 78%, respectively. Also, the IC50 came to 55 nM in experiment [8], 3150 nM in the experiment on A-431, 2980 nM in the experiment with A549 and 206 nM with PC-9 [5].

For the compound `C=CC(=O)Nc1cc(Nc2ncc3cc(C(=O)Nc4cccc(OC)c4)n(C4CCCC4)c3n2)c(OC)cc1N(C)CCN(C)C`, the inhibition was 17% in [1] and 11% in experiment [2].

In the case of `C=CC(=O)Nc1cc(Nc2ncc3cc(CNc4cccc(OC)c4)n(C4CCCC4)c3n2)c(OC)cc1N(C)CCN(C)C`, the values for the inhibition in [1] and in experiment [2] were 56% and 41%, respectively.

As for `C=CC(=O)Nc1cc(Nc2ncc3cc(C(=O)Nc4ccccc4)n(C4CCCC4)c3n2)ccc1N1CCN(C)CC1`, the inhibition was determined as 37% in [1] and 21% in experiment [2].

As to `C=CC(=O)Nc1cc(Nc2ncc3cc(C(=O)Nc4cccc(N(C)C)c4)n(C4CCCC4)c3n2)c(OC)cc1N(C)CCN(C)C`, the inhibition in experiment [1] was 16%; in [2], 12%.

Turning to `C=CC(=O)Nc1cc(Nc2ncc3cc(C(=O)Nc4ccc(F)c(Cl)c4)n(C4CCCC4)c3n2)c(OC)cc1N(C)CCN(C)C`, the results for the inhibition in [1] and in experiment [2] were 10% and 8.1%, respectively.

As for `C=CC(=O)Nc1cc(Nc2ncc3cc(C(=O)Nc4cccc(OC)c4)n(C4CCCC4)c3n2)c(OC)cc1N1CCOCC1`, the inhibition was determined as 3.2% in [1] and 1.4% in experiment [2].

As to `COc1cc(N2CCC(N(C)C)CC2)ccc1Nc1ncc2cc(CNc3ccccc3)n(C3CCCC3)c2n1`, the inhibition in experiment [1] was determined as 83%; in experiment [2] it was 80%. In addition, the IC50 is 10 nM in experiment [8], 3080 nM in the experiment with A-431, 1630 nM in the experiment on A549 and 261 nM in the experiment on PC-9 [5].

The values are drawn from ChEMBL document CHEMBL5120829, “Discovery and structural optimization of potent epidermal growth factor receptor (EGFR) inhibitors against L858R/T790M/C797S resistance mutation for lung cancer treatment” (Eur J Med Chem, 2022).
